In patent US8343951B2, “Volatile sulfide production inhibitor and method for inhibiting the production of volatile sulfide using the inhibitor” (Kabushiki Kaisha Hayashibara Seibutsu Kagaku Kenkyujo, priority 2006, dated 2013):

How the values were obtained:
[1] = Hydrogen sulfide production from heated mackerel meat homogenate (headspace detecting tube); settings: for Produced Volatile sulfide: hydrogen sulfide in headspace; for Inhibiting rate of volatile sulfide production: hydrogen sulfide, relative to control
Experimental: AA-2G (reagent grade, commercialized by Hayashibara Biochemical Laboratories, Inc.) was dissolved in distilled water to give a solution of a concentration of 10%. A certain amount of the solution and 5 ml of 500 mM phosphate buffer (pH 7.0) were put into measuring flask and filled up to 50 ml to give the test solutions containing AA-2G at the twofold concentration described in Table 1. Also the test solutions containing ascorbic acid were prepared in the same way except for using ascorbic acid (guaranteed regent) in place of AA-2G. Five ml of 500 mM phosphate buffer (pH 7.0) was filled up to 50 ml with distilled water to give control solution. Edible part of commercial mackerel fillet without bone and skin was chopped with trio blender and homogeneously stirred to make minced mackerel. Forty-five grams of the minced mackerel was put into a beaker and added with 45 g of the test solution or control solution to give the samples at the concentration of AA-2G or ascorbic acid described in Table 1. The samples were treated with homogenizer (produced by IKA Works Inc.) at ice-chilled temperature to give the homogenates as the test samples. PH of the homogenates is from 6.21 to 6.38. Ten grams of the above samples were put into 20 ml-vials and sealed with butyl rubber cap and aluminum seal. They were heated in boiled water bath for 15 minutes and cooled in running cool water. After cooled, they were heated on heating block (80° C.) for 10 minutes and the solidified samples were broken with vortex mixer. The amounts of hydrogen sulfide in the headspace gas were measured by hydrogen sulfide detecting tube ([…] No. 4LT, produced by GL Sciences Inc.). Also the inhibiting rate (%) of hydrogen sulfide production were shown in Table 1, which were obtained by subtracting the percentage amounts of hydrogen sulfide produced from 1 g of mackerel meats added with test solutions relative to the amount of hydrogen sulfide produced from 1 g of mackerel meat added with control solution from 100 to obtain.

[2] = Dimethyl-sulfide and dimethyl-disulfide production from heated milk (headspace gas chromatography); settings: for Produced Dimethyl-disulfide / Produced Dimethyl-sulfide: milk heated 130° C. one minute; for production of volatile sulfides (dimethyl-sulfide and dimethyl-disulfide) from the test solutions / Produced Volatile sulfide: milk; for Inhibiting rate of volatile sulfide production: relative to control milk; for Produced Volatile sulfide: sum of dimethyl-sulfide and dimethyl-disulfide
Experimental: AA-2G (reagent grade, commercialized by Hayashibara Biochemical Laboratories, Inc.) was added in commercial milk to give the concentrations described in Table 2 to make the test solutions. Test solutions containing ascorbic acid were prepared in the same way except for using ascorbic acid (guaranteed regent) in place of AA-2G. The commercial milk was used plain as control. Sensory test of the solutions was performed by 11 panelists to evaluate the taste of each test solution added with AA-2G or ascorbic acid as being different (D) from control or as being the same (S) as control. As a result, eight or more of the 11 panelists gave a same evaluation to each test solution.
One ml of the above samples were put into 20 ml-vials and sealed with butyl rubber cap and aluminum seal. After heated at 130° C. for one minute, the amounts of dimethyl-sulfide and dimethyl-disulfide in the headspace were measured by gas chromatography in conventional way. The sums of them were shown as the amounts of volatile sulfide in Table 2. Also the inhibiting rates (%) of volatile sulfide production were shown in Table 2, which were obtained by subtracting the percentage amounts of volatile sulfide produced from ml of the test solutions relative to the amount of volatile sulfide produced from 1 ml of control (milk) from 100 to obtain.

O=C1O[C@H]([C@@H](O)CO)C(O)=C1O [Ascorbic acid, L-ascorbic acid, reference compound]
hydrogen sulfide production from homogenate of mackerel meat ([1]; concentration of 0.005% or less): equal to control | hydrogen sulfide production from homogenate of mackerel meat ([1]; concentration of 0.01% or more): enhanced | Produced Volatile sulfide ([1]; additive 0.0001% in sample): 44.1 μg/g-mackerel | Produced Volatile sulfide ([1]; additive 0.0005% in sample): 43.4 μg/g-mackerel | Produced Volatile sulfide ([1]; additive 0.001% in sample): 43.6 μg/g-mackerel | Produced Volatile sulfide ([1]; additive 0.005% in sample): 42.9 μg/g-mackerel | Produced Volatile sulfide ([1]; additive 0.01% in sample): 71.7 μg/g-mackerel | Produced Volatile sulfide ([1]; additive 0.025% in sample): 133.9 μg/g-mackerel | Produced Volatile sulfide ([1]; additive 0.05% in sample): 139.3 μg/g-mackerel | Produced Volatile sulfide ([1]; additive 0.1% in sample): 207.1 μg/g-mackerel | Produced Volatile sulfide ([1]; additive 0.5% in sample): 257.4 μg/g-mackerel | Produced Volatile sulfide ([1]; additive 1.0% in sample): 287.8 μg/g-mackerel | Inhibiting rate of volatile sulfide production ([1]; additive 0.0001% in sample): −2.1% | Inhibiting rate of volatile sulfide production ([1]; additive 0.0005% in sample): −0.5% | Inhibiting rate of volatile sulfide production ([1]; additive 0.001% in sample): −0.9% | Inhibiting rate of volatile sulfide production ([1]; additive 0.005% in sample): 0.7% | Inhibiting rate of volatile sulfide production ([1]; additive 0.01% in sample): −66.0% | Inhibiting rate of volatile sulfide production ([1]; additive 0.025% in sample): −210.0% | Inhibiting rate of volatile sulfide production ([1]; additive 0.05% in sample): −222.5% | Inhibiting rate of volatile sulfide production ([1]; additive 0.1% in sample): −379.4% | Inhibiting rate of volatile sulfide production ([1]; additive 0.5% in sample): −495.8% | Produced Dimethyl-disulfide ([2]; additive 0.0001% in sample): 0.56 μg/ml-milk | Produced Dimethyl-sulfide ([2]; additive 0.0001% in sample): 1.32 μg/ml-milk | Produced Dimethyl-disulfide ([2]; additive 0.0005% in sample): 0.54 μg/ml-milk | Produced Dimethyl-sulfide ([2]; additive 0.0005% in sample): 1.41 μg/ml-milk | Produced Dimethyl-disulfide ([2]; additive 0.001% in sample): 0.51 μg/ml-milk | Produced Dimethyl-sulfide ([2]; additive 0.001% in sample): 1.28 μg/ml-milk | Produced Dimethyl-disulfide ([2]; additive 0.005% in sample): 0.24 μg/ml-milk | Produced Dimethyl-sulfide ([2]; additive 0.005% in sample): 0.71 μg/ml-milk | Produced Dimethyl-disulfide ([2]; additive 0.01% in sample): 0.21 μg/ml-milk | Produced Dimethyl-sulfide ([2]; additive 0.01% in sample): 0.45 μg/ml-milk | Produced Dimethyl-disulfide ([2]; additive 0.05% in sample): 0.18 μg/ml-milk | Produced Dimethyl-sulfide ([2]; additive 0.05% in sample): 0.54 μg/ml-milk | Produced Dimethyl-disulfide ([2]; additive 0.1% in sample): 0.27 μg/ml-milk | Produced Dimethyl-sulfide ([2]; additive 0.1% in sample): 0.61 μg/ml-milk | Produced Dimethyl-disulfide ([2]; additive 0.5% in sample): 0.31 μg/ml-milk | Produced Dimethyl-sulfide ([2]; additive 0.5% in sample): 0.74 μg/ml-milk | Produced Dimethyl-disulfide ([2]; additive 2.5% in sample): 0.38 μg/ml-milk | Produced Dimethyl-sulfide ([2]; additive 2.5% in sample): 1.07 μg/ml-milk | production of volatile sulfides (dimethyl-sulfide and dimethyl-disulfide) from the test solutions ([2]; concentration of 0.001% or less): equal to control | production of volatile sulfides (dimethyl-sulfide and dimethyl-disulfide) from the test solutions ([2]; concentration of 0.005%): inhibited | Inhibiting rate of volatile sulfide production ([2]; additive 0.0001% in sample): 0.5% | Inhibiting rate of volatile sulfide production ([2]; additive 0.0005% in sample): −3.2% | Inhibiting rate of volatile sulfide production ([2]; additive 0.001% in sample): 5.3% | Inhibiting rate of volatile sulfide production ([2]; additive 0.005% in sample): 49.7% | Inhibiting rate of volatile sulfide production ([2]; additive 0.01% in sample): 65.1% | Inhibiting rate of volatile sulfide production ([2]; additive 0.05% in sample): 61.9% | Inhibiting rate of volatile sulfide production ([2]; additive 0.1% in sample): 53.4% | Inhibiting rate of volatile sulfide production ([2]; additive 0.5% in sample): 44.4% | Inhibiting rate of volatile sulfide production ([2]; additive 2.5% in sample): 23.3% | Produced Volatile sulfide ([2]; additive 0.0001% in sample): 1.88 µg/mL | Produced Volatile sulfide ([2]; additive 0.0005% in sample): 1.95 µg/mL | Produced Volatile sulfide ([2]; additive 0.001% in sample): 1.79 µg/mL | Produced Volatile sulfide ([2]; additive 0.005% in sample): 0.95 µg/mL | Produced Volatile sulfide ([2]; additive 0.01% in sample): 0.66 µg/mL | Produced Volatile sulfide ([2]; additive 0.05% in sample): 0.72 µg/mL | Produced Volatile sulfide ([2]; additive 0.1% in sample): 0.88 µg/mL | Produced Volatile sulfide ([2]; additive 0.5% in sample): 1.05 µg/mL | Produced Volatile sulfide ([2]; additive 2.5% in sample): 1.45 µg/mL
